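Exposure lasted 48 hours, with cells grown in 96-well plates and compounds tested at five concentrations. GI50 marks 50% less growth. TGI: total growth inhibition.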
Key:
Assay in all cases: NCI tumour cell line growth inhibition, 48 h
[1] = system: HCT-15 colon
[2] = system: DU-145 prostate
[3] = system: OVCAR-3 ovarian
[4] = system: NCI-H522 lung
[5] = system: CAKI-1 renal
[6] = system: HT29 colon
[7] = system: SK-OV-3 ovarian
[8] = system: COLO 205 colon
[9] = system: MDA-MB-231 breast
[10] = system: HCC-2998 colon
[11] = system: SR leukemia
[12] = system: OVCAR-8 ovarian
[13] = system: UACC-257 melanoma
[14] = system: SF-295 CNS
[15] = system: SNB-75 CNS
[16] = system: UO-31 renal
[17] = system: TK-10 renal
[18] = system: U251 CNS
[19] = system: K-562 leukemia
[20] = system: SK-MEL-2 melanoma
[21] = system: A549 NSCLC
[22] = system: OVCAR-4 ovarian
[23] = system: 786-0 renal
[24] = system: MCF7 breast
[25] = system: ACHN renal
[26] = system: BT-549 breast
[27] = system: SF-268 CNS
[28] = system: SK-MEL-28 melanoma
[29] = system: CCRF-CEM leukemia
[30] = system: RXF 393 renal
[31] = system: SN12C renal
[32] = system: NCI-H226 lung
[33] = system: M14 melanoma
[34] = system: OVCAR-5 ovarian
[35] = system: MALME-3M melanoma
[36] = system: NCI-H23 lung
[37] = system: PC-3 prostate
[38] = system: MOLT-4 leukemia
[39] = system: UACC-62 melanoma
[40] = system: HL-60(TB) leukemia
[41] = system: NCI-H460 lung
[42] = system: SK-MEL-5 melanoma
[43] = system: HS 578T breast
[44] = system: SF-539 CNS
[45] = system: NCI/ADR-RES ovarian
[46] = system: T-47D breast
[47] = system: HOP-92 NSCLC
[48] = system: LOX IMVI melanoma
[49] = system: MDA-MB-435
[50] = system: HCT-116 colon
[51] = system: IGROV1 ovarian
[52] = system: A498 renal
[53] = system: HOP-62 NSCLC
[54] = system: RPMI-8226 leukemia
[55] = system: SNB-19 CNS
[56] = system: KM12 colon
[57] = system: SW-620 colon

**Q.** For `Cn1cc(C2=C(c3cn(-c4ccccc4)c4ccccc34)C(=O)NC2=O)c2ccccc21`, which GI50 [1] is on record?
**A.** 10.7 µM

**Q.** What about the TGI [1] of the same compound?
**A.** > 25 µM

**Q.** And the GI50 [2]?
**A.** > 25 µM

**Q.** And the TGI [2]?
**A.** > 25 µM

**Q.** And the GI50 [3]?
**A.** 14 µM

**Q.** What about the TGI [3] of the same compound?
**A.** > 25 µM

**Q.** And the GI50 [4]?
**A.** 6.61 µM

**Q.** And the TGI [4]?
**A.** > 25 µM

**Q.** What about the GI50 [5] of the same compound?
**A.** 16.4 µM

**Q.** And the TGI [5]?
**A.** > 25 µM

**Q.** And the GI50 [6]?
**A.** 9.56 µM

**Q.** What about the TGI [6] of the same compound?
**A.** > 25 µM

**Q.** What about the GI50 [7] of the same compound?
**A.** > 25 µM

**Q.** And the TGI [7]?
**A.** > 25 µM

**Q.** What about the GI50 [8] of the same compound?
**A.** 11.6 µM

**Q.** What about the TGI [8] of the same compound?
**A.** > 25 µM

**Q.** What about the GI50 [9] of the same compound?
**A.** > 23.3 µM

**Q.** What about the TGI [9] of the same compound?
**A.** > 25 µM

**Q.** What about the GI50 [10] of the same compound?
**A.** 24.4 µM

**Q.** What about the TGI [10] of the same compound?
**A.** > 25 µM

**Q.** What about the GI50 [11] of the same compound?
**A.** 9.37 µM

**Q.** What about the TGI [11] of the same compound?
**A.** > 25 µM

**Q.** And the GI50 [12]?
**A.** 19.5 µM

**Q.** What about the TGI [12] of the same compound?
**A.** > 25 µM

**Q.** What about the GI50 [13] of the same compound?
**A.** > 25 µM

**Q.** And the TGI [13]?
**A.** > 25 µM

**Q.** What about the GI50 [14] of the same compound?
**A.** 13.3 µM

**Q.** And the TGI [14]?
**A.** > 25 µM

**Q.** What about the GI50 [15] of the same compound?
**A.** 5.76 µM

**Q.** What about the TGI [15] of the same compound?
**A.** > 25 µM

**Q.** And the GI50 [16]?
**A.** 5.35 µM

**Q.** What about the TGI [16] of the same compound?
**A.** > 25 µM

**Q.** And the GI50 [17]?
**A.** > 25 µM

**Q.** And the TGI [17]?
**A.** > 25 µM

**Q.** And the GI50 [18]?
**A.** 11.5 µM

**Q.** And the TGI [18]?
**A.** > 25 µM

**Q.** What about the GI50 [19] of the same compound?
**A.** 8.75 µM

**Q.** What about the TGI [19] of the same compound?
**A.** > 25 µM

**Q.** What about the GI50 [20] of the same compound?
**A.** 9.14 µM

**Q.** And the TGI [20]?
**A.** > 25 µM

**Q.** And the GI50 [21]?
**A.** 11.8 µM

**Q.** What about the TGI [21] of the same compound?
**A.** > 25 µM

**Q.** And the GI50 [22]?
**A.** 10.4 µM

**Q.** And the TGI [22]?
**A.** > 25 µM

**Q.** And the GI50 [23]?
**A.** > 25 µM

**Q.** What about the TGI [23] of the same compound?
**A.** > 25 µM

**Q.** And the GI50 [24]?
**A.** 9.3 µM

**Q.** And the TGI [24]?
**A.** > 25 µM

**Q.** And the GI50 [25]?
**A.** 17.3 µM

**Q.** And the TGI [25]?
**A.** > 25 µM

**Q.** What about the GI50 [26] of the same compound?
**A.** 16.2 µM

**Q.** What about the TGI [26] of the same compound?
**A.** > 25 µM

**Q.** And the GI50 [27]?
**A.** 20.4 µM

**Q.** What about the TGI [27] of the same compound?
**A.** > 25 µM

**Q.** What about the GI50 [28] of the same compound?
**A.** 22.3 µM

**Q.** And the TGI [28]?
**A.** > 25 µM

**Q.** And the GI50 [29]?
**A.** 15.2 µM

**Q.** What about the TGI [29] of the same compound?
**A.** > 25 µM

**Q.** What about the GI50 [30] of the same compound?
**A.** 10.2 µM

**Q.** What about the TGI [30] of the same compound?
**A.** > 25 µM

**Q.** And the GI50 [31]?
**A.** 15.8 µM

**Q.** And the TGI [31]?
**A.** > 25 µM

**Q.** And the GI50 [32]?
**A.** > 25 µM

**Q.** What about the TGI [32] of the same compound?
**A.** > 25 µM

**Q.** And the GI50 [33]?
**A.** 13 µM

**Q.** What about the TGI [33] of the same compound?
**A.** > 25 µM

**Q.** And the GI50 [34]?
**A.** > 25 µM

**Q.** What about the TGI [34] of the same compound?
**A.** > 25 µM

**Q.** What about the GI50 [35] of the same compound?
**A.** 14.9 µM

**Q.** And the TGI [35]?
**A.** > 25 µM

**Q.** And the GI50 [36]?
**A.** 18.8 µM

**Q.** And the TGI [36]?
**A.** > 25 µM

**Q.** What about the GI50 [37] of the same compound?
**A.** 9.86 µM

**Q.** What about the TGI [37] of the same compound?
**A.** > 25 µM

**Q.** What about the GI50 [38] of the same compound?
**A.** 9.59 µM

**Q.** And the TGI [38]?
**A.** > 25 µM

**Q.** And the GI50 [39]?
**A.** 16.3 µM

**Q.** And the TGI [39]?
**A.** > 25 µM

**Q.** What about the GI50 [40] of the same compound?
**A.** 8.91 µM

**Q.** And the TGI [40]?
**A.** > 25 µM

**Q.** And the GI50 [41]?
**A.** 17.7 µM

**Q.** What about the TGI [41] of the same compound?
**A.** > 25 µM

**Q.** What about the GI50 [42] of the same compound?
**A.** 10.8 µM

**Q.** What about the TGI [42] of the same compound?
**A.** > 25 µM

**Q.** And the GI50 [43]?
**A.** > 14.6 µM

**Q.** And the TGI [43]?
**A.** > 25 µM

**Q.** And the GI50 [44]?
**A.** > 25 µM

**Q.** And the TGI [44]?
**A.** > 25 µM

**Q.** And the GI50 [45]?
**A.** 11.2 µM

**Q.** What about the TGI [45] of the same compound?
**A.** > 25 µM

**Q.** What about the GI50 [46] of the same compound?
**A.** 7.53 µM

**Q.** And the TGI [46]?
**A.** > 25 µM

**Q.** What about the GI50 [47] of the same compound?
**A.** > 25 µM

**Q.** What about the TGI [47] of the same compound?
**A.** > 25 µM

**Q.** What about the GI50 [48] of the same compound?
**A.** 19.2 µM

**Q.** What about the TGI [48] of the same compound?
**A.** > 25 µM

**Q.** What about the GI50 [49] of the same compound?
**A.** 6.01 µM

**Q.** What about the TGI [49] of the same compound?
**A.** > 20.5 µM

**Q.** What about the GI50 [50] of the same compound?
**A.** 11 µM

**Q.** And the TGI [50]?
**A.** > 25 µM

**Q.** What about the GI50 [51] of the same compound?
**A.** 11.7 µM

**Q.** And the TGI [51]?
**A.** > 25 µM

**Q.** And the GI50 [52]?
**A.** > 16.2 µM

**Q.** And the TGI [52]?
**A.** > 25 µM

**Q.** And the GI50 [53]?
**A.** > 25 µM

**Q.** What about the TGI [53] of the same compound?
**A.** > 25 µM

**Q.** And the GI50 [54]?
**A.** 12.1 µM

**Q.** And the TGI [54]?
**A.** > 25 µM

**Q.** And the GI50 [55]?
**A.** > 25 µM

**Q.** And the TGI [55]?
**A.** > 25 µM

**Q.** What about the GI50 [56] of the same compound?
**A.** 8.12 µM

**Q.** And the TGI [56]?
**A.** > 25 µM

**Q.** What about the GI50 [57] of the same compound?
**A.** 9.68 µM

**Q.** What about the TGI [57] of the same compound?
**A.** > 25 µM

Source: PubChem BioAssay (NCI)
